Test results from patent EP2488529B1, “Spirocyclic derivatives as histone deacetylase inhibitors” (DAC S.r.l., priority 2009, dated 2011).
Where two headings read alike, the source gives them in different places.

Columns and labels:
[1] = test system: K562; assay: Cell growth, CellTiter-Glo Luminescent Cell Viability Assay (antiproliferative assay); assay type: cell-based; conditions: K562 cells, incubated for 72 h
Description: (§1) CellTiter-Glo® Luminescent Cell Viability Assay (Promega) is a homogeneous method of determining the number of viable cells in culture based on quantitation of the present ATP, which indicates the presence of metabolically active cells. The homogeneous assay procedure involves addition of a single reagent (CellTiter-Glo® Reagent) directly to the cells, which leads to cell lysis and generation of a luminescent signal proportional to the amount of the ATP and the number of cells present in culture. The assay relies on the properties of a proprietary thermostable luciferase (Ultra-Glo® recombinant luciferase), which generates a luminescent signal. K562, A549, and HCT-116 cells, in exponential growth, were incubated for 72 h with different concentrations of the inhibitors. After 72 h, a volume of CellTiter-Glo® Reagent equal to the volume of cell culture medium was added. The content was mixed for 2 min to induce cell lysis. The luminescence was recorded after further 10 min at RT in order to obtain a stable luminescent signal.
(§2) The IC50 was calculated using GraphPad Software.

[2] = test system: HCT-116; assay: as above; assay type: cell-based; conditions: HCT-116 cells, incubated for 72 h, read-out: HCT116 IC50
Description: as §1, §2

[3] = test system: A549; assay: as above; assay type: cell-based; conditions: A549 cells, incubated for 72 h
Description: as §1, §2

[4] = molecular target: HDAC; assay: Assay of enzyme inhibition of HDAC (BIOMOL kit, fluorescence); assay type: biochemical; conditions: nuclear fraction of Hela cells; substrate 200 µM; 15 min at RT
Method: The in-vitro activity of HDAC inhibitors was assayed using a BIOMOL Kit, according to the instructions from the manufacturer (Biomolecular Research Laborator). 15 µl of 30 x diluted nuclear fraction of Hela cells, was diluted to 50 µl with the assay buffer containing the HDAC inhibitor and the substrate (lysine with acetylated amino group on the side chain) at a concentration of 200 µM. The samples were incubated for 15 min at RT and then exposed to a developer (10 min at RT). In this last step a fluorophore was produced, whose fluorescence was measured using an excitation wavelength of 355 nm and an emission at 460 nm. The IC50 was calculated using GraphPad Software.

Compound | IC50 ([1]; Homo sapiens) [nM] | IC50 ([2]; Homo sapiens) [nM] | IC50 ([3]; Homo sapiens) [nM] | IC50 [4] [nM] | IC50 [1] [nM] | IC50 [2] [nM] | IC50 [3] [nM]
O=C(/C=C/c1ccc2c(c1)C(=O)CC1(CCCN(Cc3ccc(F)cc3)CC1)O2)NO (racemic) [Example 29, (±)-(E)-3-[1'-(4-Fluoro-benzyl)-4-oxo-spiro(chromane-2,4'-azepane)-6-yl]-N-hydroxy-acrylamide] | ≤ 1000 | ≤ 1000 | ≤ 1000 | 100 to 1000 |  |  | 
O=C(/C=C/c1ccc2c(c1)C(=O)NC1(CCCNC1)O2)NO (racemic) [Example 39, (±)-(E)-3-{3,4-Dihydro-4-oxo-spiro[2H-(1,3)-benzoxazine-2,3'-piperidin]-6-yl}-N-hydroxy-acrylamide] | 1000 to 3000 | 1000 to 3000 | ≥ 3000 | 100 to 1000 |  |  | 
CN1CCCC2(C1)NC(=O)c1cc(/C=C/C(=O)NO)ccc1O2 (racemic) [Example 41, (±)-(E)-3-{1'-Methyl-3,4-dihydro-4-oxo-spiro[2H-(1,3)-benzoxazine-2,3'-piperidin]-6-yl}-N-hydroxy-acrylamide] | ≤ 1000 | ≤ 1000 | 1000 to 3000 | 100 to 1000 |  |  | 
O=C(/C=C/c1ccc2c(c1)C(=O)NC1(CCCN(Cc3ccc(F)cc3)C1)O2)NO (racemic) [Example 42, (±)-(E)-3-{1'-(4-Fluoro-benzyl)-3,4-dihydro-4-oxo-spiro[2H-(1,3)-benzoxazine-2,3'-piperidin]-6-yl}-N-hydroxy-acrylamide] | ≤ 1000 | ≤ 1000 | 1000 to 3000 | 100 to 1000 |  |  | 
Cn1cc(CN2CCCC3(CC(=O)c4cc(/C=C/C(=O)NO)ccc4O3)C2)c2ccccc21 (racemic) [Example 45, (±)-(E)-3-[1'-(1-Methyl-1H-indol-3-ylmethyl)-4-oxo-spiro(chromane-2,3'-piperidine)-6-yl]-N-hydroxy-acrylamide] | ≤ 1000 | ≤ 1000 | ≤ 1000 | 100 to 1000 |  |  | 
Cn1cc(CN2CCCC3(C2)NC(=O)c2cc(/C=C/C(=O)NO)ccc2O3)c2ccccc21 (racemic) [Example 46, (±)-(E)-3-{1'-(1-Methyl-1H-indol-3-ylmethyl)-4-oxo-spiro[2H-(1,3)-benzoxazine-2,3'-piperidin]-6-yl}-N-hydroxy-acrylamide] | ≤ 1000 | ≤ 1000 | ≤ 1000 | 100 to 1000 |  |  | 
CC(C)N1CCCC2(CC(=O)c3cc(/C=C/C(=O)NO)ccc3O2)C1 (racemic) [Example 49, (±)-(E)-3-[1'-Isopropyl-4-oxo-spiro(chromane-2,3'-piperidine)-6-yl]-N-hydroxy-acrylamide] | ≤ 1000 | ≤ 1000 | ≤ 1000 | 100 to 1000 |  |  | 
O=C(/C=C/c1ccc2c(c1)C(=O)CC1(CCCN(Cc3ccccc3)C1)O2)NO (single isomer, unassigned; (+)) [Example 18, (+)-(E)-3-[1'-Benzyl-4-oxo-spiro(chrormane-2,3'-piperidine)-6-yl]-N-hydroxy-acrylamide] | ≤ 1000 | ≤ 1000 | 1000 to 3000 | 100 to 1000 |  |  | 
O=C(/C=C/c1ccc2c(c1)C(=O)CC1(CNC1)O2)NO [Example 30, (E)-3-[4-Oxo-spiro(chromane-2,3'-azetidine)-6-yl]-N-hydroxy-acrylamide] | 1000 to 3000 | ≥ 3000 | ≥ 3000 | 100 to 1000 |  |  | 
O=C(/C=C/c1ccc2c(c1)C(=O)CC1(CN(CCc3ccccc3)C1)O2)NO [Example 32, (E)-3-[1'-(2-Phenyl-ethyl)-4-oxo-spiro(chromane-2,3'-azetidine)-6-yl]-N-hydroxy-acrylamide] | ≤ 1000 | ≤ 1000 | ≤ 1000 | 100 to 1000 |  |  | 
O=C(/C=C/c1ccc2c(c1)C(=O)CC1(CN(Cc3ccc(F)cc3)C1)O2)NO [Example 33, (E)-3-[1'-(4-Fluoro-benzyl)-4-oxo-spiro(chromane-2,3'-azetidine)-6-yl]-N-hydroxy-acrylamide] | ≤ 1000 | ≤ 1000 | ≤ 1000 | 100 to 1000 |  |  | 
CN1CC2(CC(=O)c3cc(/C=C/C(=O)NO)ccc3O2)C1 [Example 34, (E)-3-[1'-Methyl-4-oxo-spiro(chromane-2,3'-azetidine)-6-yl]-N-hydroxy-acrylamide] | ≤ 1000 | ≤ 1000 | ≤ 1000 | 100 to 1000 |  |  | 
O=C(/C=C/c1ccc2c(c1)C(=O)CC1(CN(CCc3ccc(F)cc3)C1)O2)NO [Example 35, (E)-3-{1'-[2-(4-Fluoro-phenyl)-ethyl]-4-oxo-spiro(chromane-2,3'-azetidine)-6-yl}-N-hydroxy-acrylamide] | ≤ 1000 | ≤ 1000 | 1000 to 3000 | 100 to 1000 |  |  | 
CC(=O)N1CC2(CC(=O)c3cc(/C=C/C(=O)NO)ccc3O2)C1 [Example 36, (E)-3-[1'-Acetyl-4-oxo-spiro(chromane-2,3'-azetidine)-6-yl]-N-hydroxy-acrylamide] | ≥ 3000 | ≥ 3000 | ≥ 3000 | 100 to 1000 |  |  | 
CCOC(=O)N1CC2(CC(=O)c3cc(/C=C/C(=O)NO)ccc3O2)C1 [Example 38, (E)-3-[1'-Ethyloxycarbonyl-4-oxo-spiro(chromane-2,3'-azetidine)-6-yl]-N-hydroxy-acrylamide] | 1000 to 3000 | 1000 to 3000 | ≥ 3000 | 100 to 1000 |  |  | 
Cn1cc(CN2CC3(CC(=O)c4cc(/C=C/C(=O)NO)ccc4O3)C2)c2ccccc21 [Example 44, (E)-3-[1'-(1-Methyl-1H-indol-3-ylmethyl)-4-oxo-spiro(chromane-2,3'-azetidine)-6-yl]-N-hydroxy-acrylamide] | ≤ 1000 | ≤ 1000 | ≤ 1000 | ≤ 100 |  |  | 

The next lines start with the values.

IC50 ([1]; Homo sapiens) [nM] | IC50 ([2]; Homo sapiens) [nM] | IC50 ([3]; Homo sapiens) [nM] | IC50 [4] [nM] | IC50 [1] [nM] | IC50 [2] [nM] | IC50 [3] [nM] | Compound
≤ 1000 | ≤ 1000 | ≤ 1000 | ≤ 100 |  |  |  | O=C(/C=C/c1ccc2c(c1)C(=O)NC1(CCCN(Cc3ccccc3)C1)O2)NO (racemic) [Example 40, (±)-(E)-3-{1'-Benzyl-3,4-dihydro-4-oxo-spiro[2H-(1,3)-benzoxazine-2,3'-piperidin]-6-yl}-N-hydroxy-acrylamide]
≤ 1000 | ≤ 1000 | ≤ 1000 | ≤ 100 |  |  |  | O=C(/C=C/c1ccc2c(c1)C(=O)NC1(CCCN(CCc3ccccc3)C1)O2)NO (racemic) [Example 43, (±)-(E)-3-{1'-(2-Phenyl-ethyl)-3,4-dihydro-4-oxo-spiro[2H-(1,3)-benzoxazine-2,3'-piperidin]-6-yl}-N-hydroxy-acrylamide]
≤ 1000 | ≤ 1000 | ≤ 1000 | ≤ 100 |  |  |  | O=C(/C=C/c1ccc2c(c1)C(=O)CC1(CCCN(C3CCCC3)C1)O2)NO (racemic) [Example 50, (±)-(E)-3-[1'-Cyclopentyl-4-oxo-spiro(chromane-2,3'-piperidine)-6-yl]-N-hydroxy-acrylamide]
 |  |  | ≤ 100 | ≤ 1000 | ≤ 1000 | ≤ 1000 | O=C(/C=C/c1ccc2c(c1)C(=O)CC1(CCN(Cc3ccccc3)C1)O2)NO (single isomer, unassigned; (+)) [Example 4, (+)-(E)-3-[1'-Benzyl-4-oxo-spiro(chromane-2,3'-pyrrolidine)-6-yl]-N-hydroxy-acrylamide]
≤ 1000 | ≤ 1000 | ≤ 1000 | ≤ 100 |  |  |  | O=C(/C=C/c1ccc2c(c1)C(=O)CC1(CCN(Cc3ccccc3)C1)O2)NO (single isomer, unassigned; (-)) [Example 3, (-)-(E)-3-[1 '-Benzyl-4-oxo-spiro(chromane-2,3'-pyrrolidine)-6-yl]-N-hydroxy-acrylamide]
≤ 1000 | ≤ 1000 | 1000 to 3000 | ≤ 100 |  |  |  | O=C(/C=C/c1ccc2c(c1)C(=O)CC1(CCCN(Cc3ccccc3)C1)O2)NO (single isomer, unassigned; (-)) [Example 17, (-)-(E)-3-[1'-Benzyl-4-oxo-spiro(chromane-2,3'-piperidine)-6-yl]-N-hydroxy-acrylamide]
≤ 1000 | ≤ 1000 | ≤ 1000 | ≤ 100 |  |  |  | O=C(/C=C/c1ccc2c(c1)C(=O)CC1(CN(Cc3ccccc3)C1)O2)NO [Example 31, (E)-3-[1'-Benzyl-4-oxo-spiro(chromane-2,3'-azetidine)-6-yl]-N-hydroxy-acrylamide]
≤ 1000 | ≤ 1000 | 1000 to 3000 | ≤ 100 |  |  |  | O=C(/C=C/c1ccc2c(c1)C(=O)CC1(CN(C(=O)c3ccccc3)C1)O2)NO [Example 37, (E)-3-[1'-Benzoyl-4-oxo-spiro(chromane-2,3'-azetidine)-6-yl]-N-hydroxy-acrylamide]
